# pIC50: −log10 of the molar value.
# Molecular target: T1, human CXCR3 (N-delta 4) (Homo sapiens, UniProt P49682)
# T1 construct: CD8 leader (N); Flag; expressed in transfected cells; membranes prepared
# T1 sequence (P49682 5-368 limits assumed): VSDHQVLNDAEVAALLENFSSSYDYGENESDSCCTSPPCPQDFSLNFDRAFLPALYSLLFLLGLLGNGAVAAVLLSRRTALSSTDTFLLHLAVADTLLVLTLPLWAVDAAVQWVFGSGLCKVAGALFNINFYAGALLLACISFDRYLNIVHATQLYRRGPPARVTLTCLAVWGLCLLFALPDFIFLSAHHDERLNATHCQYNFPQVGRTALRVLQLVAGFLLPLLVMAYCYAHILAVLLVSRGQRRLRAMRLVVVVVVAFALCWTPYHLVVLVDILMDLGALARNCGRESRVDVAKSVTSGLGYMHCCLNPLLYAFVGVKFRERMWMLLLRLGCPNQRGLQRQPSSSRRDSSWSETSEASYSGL
# Experiment: Human CXCR3 (N-delta 4) Scintillation Proximity Assay (SPA), [125I] IP-10 binding to Ba/F3-hCXCR3 membranes
# Details: IC50 rating, Table 1; read-out: IC50
# Text: The inventive compounds can readily be evaluated to determine activity at the CXCR3 receptors by known methods, such as, for example, development of a human CXCR3 (N-delta 4) Binding Assay.
# Cloning and Expression of Human CXCR3 (N-delta 4):
# The DNA encoding human CXCR3 was cloned by PCR using human genomic DNA (Promega, Madison, Wis.) as a template. The PCR primers were designed based on the published sequence of human orphan receptor GPR9 (1) with incorporated restriction sites, a Kozak consensus sequence, CD8 leader and Flag tag. The PCR product was subcloned into the mammalian expression vector pME18Sneo, a derivative of the SR-alpha expression vector (designated as pME18Sneo-hCXCR3 (N-delta 4).
# IL-3-dependent mouse pro-B cells Ba/F3 were transfected by electroporation in 0.4 ml Dulbecco's PBS containing 4×10^6 cells with 20 μg of pME18Sneo-hCXCR3 (N-delta 4) plasmid DNA. Cells were pulsed at 400 Volts, 100 OHMs, 960 μFd. The transfected cells were under selection with 1 mg/ml G418 (Life Technologies, Gaithersburg, Md.). G418-resistant Ba/F3 clones were screened for CXCR3 expression by specific binding of [^125I] IP-10 (NEN Life Science Products, Boston, Mass.).
# Preparation of Ba/F3-hCXCR3 (N-delta 4) Membranes:
# Ba/F3 cells expressing human CXCR3 (N-delta 4) were pelleted and resuspended in the lysis buffer containing 10 mM HEPES, pH 7.5 and Complete® protease inhibitors (1 tablet per 100 ml) (Boehringer Mannheim, Indianapolis, Ind.) at a cell density of 20×10^6 cells per ml. After 5 minute incubation on ice, cells were transferred to 4639 cell disruption bomb (Parr Instrument, Moline, Ill.) and applied with 1,500 psi of nitrogen for 30 minutes on ice. Large cellular debris was removed by centrifugation at 1,000×g. Cell membrane in the supernatant was sedimented at 100,000×g. The membrane was resuspended in the lysis buffer supplemented with 10% sucrose and stored at −80° C. Total protein concentration of the membrane was determined by BCA method from Pierce (Rockford, Ill.).
# Human CXCR3 (N-delta 4) Scintillation Proximity Assay (SPA):
# For each assay point, 2 μg of membrane was preincubated for 1 hr with 300 μg wheat germ agglutinin (WGA) coated SPA beads (Amersham, Arlington Heights, Ill.) in the binding buffer (50 mM HEPES, 1 mM CaCl2, 5 mM MgCl2, 125 mM NaCl, 0.002% NaN3, 1.0% BSA) at room temperature. The beads were spun down, washed once, resuspended in the binding buffer and transferred to a 96-well Isoplate (Wallac, Gaithersburg, Md.). 25 pM of [^125I] IP-10 with tested compounds in a series of titration were added to start the reaction. After 3 hr reaction at room temperature, the amount of [^125I] IP-10 bound to the SPA beads was determined with a Wallac 1450 Microbeta counter.
# The Ki ratings for the various compounds of the present invention are given in the afore-mentioned Table 1. From these ratings and value ranges, it would be apparent to the skilled artisan that the compounds of the invention have excellent utility as CXCR3 receptor antagonists.
row,Compound,pIC50
1,CC[C@H]1CN(c2nc(N)c(C(=O)NC3CC3)nc2Cl)CCN1C1CCN(Cc2ccc(C#N)cc2OCCN2CCCC2=O)CC1 [compound 93],> 7.60
2,C[C@@H]1CN(C2CCN(Cc3ccc(Cl)cc3F)CC2)[C@@H](C)CN1c1cnc(C(=O)NC2CC2)cn1 [compound 94],7.00 to 7.60
3,CC[C@H]1CN(c2nc(N)c(C(=O)NC3CC3)nc2Cl)CCN1C1CCN(Cc2ccc(Cl)cc2)CC1O (stereo partly shown) [compound 95],7.00 to 7.60
4,CC[C@H]1CN(c2nc(N)c(C(=O)NC3CC3)nc2Cl)CCN1C1CCN(C(CCNC(=O)OC(C)(C)C)c2ccc(Cl)cc2)CC1 (stereo partly shown) [compound 96],< 7.00
5,CC[C@H]1CN(c2nc(N)c(C(=O)NC3CC3)nc2Cl)CCN1C1CCN(Cc2ccc(OCC(N)=O)cc2)CC1 [compound 97],< 7.00
6,CC[C@H]1CN(c2nc(N)c(C(=O)NC3CC3)nc2Cl)CCN1C1CCN(Cc2ccc(Cl)cc2)CC1O (stereo partly shown) [compound 98],< 7.00
7,CC[C@H]1CN(c2nc(N)c(C(=O)NCCOc3ccccc3)nc2Cl)CCN1C1CCN(Cc2ccc(C#N)cc2)CC1 [compound 99],> 7.60
8,CC[C@H]1CN(c2nc(N)c(C(=O)NCCS(C)(=O)=O)nc2Cl)CCN1C1CCN(Cc2ccc(Cl)cc2)CC1 [compound 100],> 7.60
9,CC[C@H]1CN(c2nc(N)c(C(=O)NCCS(C)(=O)=O)nc2Cl)CCN1C1CCN(Cc2ccc(Cl)cc2)CC1 [compound 101],7.00 to 7.60
10,CCNC(=O)c1nc(Cl)c(N2CCN(C3CCN(Cc4ccc(Cl)cc4)CC3)[C@@H](CC)C2)nc1N [compound 102],> 7.60
11,CCNC(=O)c1nc(Cl)c(N2CCN(C3CCN(C(C)(C)c4ccc(Cl)cc4)CC3)[C@@H](CC)C2)nc1N [compound 104],7.00 to 7.60
12,CC[C@H]1CN(c2nc(N)c(C(=O)NCC(=O)O)nc2Cl)CCN1C1CCN(Cc2ccc(Cl)cc2)CC1 [compound 105],< 7.00
13,CCNC(=O)c1nc(Cl)c(N2CCN(C3CCN(C(C)(C)c4ccc(Cl)cc4)CC3)[C@@H](C)C2)nc1N [compound 106],< 7.00
14,CC[C@H]1CN(c2nc(N)c(C(=O)NCCO)nc2Cl)CCN1C1CCN([C@@H](CO)c2ccc(Cl)cc2)CC1 [compound 109],> 7.60
15,CC[C@H]1CN(c2nc(N)c(C(=O)NCCO)nc2Cl)CCN1C1CCN([C@@H](CO)c2ccc(C#N)cc2)CC1 [compound 116],> 7.60
16,CC[C@H]1CN(c2nc(N)c(C(=O)NCCO)nc2Cl)CCN1C1CCN(Cc2ccc(C#N)cc2)CC1 [compound 121],> 7.60
17,CC[C@H]1CN(c2nc(N)c(C(=O)NCCO)nc2Cl)CCN1C1CCN([C@@H](CO)c2ccc(F)c(F)c2)CC1 [compound 122],> 7.60
18,CC[C@H]1CN(c2nc(N)c(C(=O)NCCO)nc2Cl)CCN1C1CCN(Cc2ccc(OC)cc2)CC1 [compound 126],> 7.60
19,CC[C@H]1CN(c2nc(N)c(C(=O)NCCO)nc2Cl)CCN1C1CCN([C@H](CO)c2ccc(Cl)cc2)CC1 [compound 128],> 7.60
20,CC[C@H]1CN(c2nc(N)c(C(=O)NCCO)nc2Cl)CCN1C1CCN(Cc2ccc(F)c(F)c2N2CC[C@@H](O)C2)CC1 [compound 135],> 7.60
21,CC[C@H]1CN(c2nc(N)c(C(=O)NCCO)nc2Cl)CCN1C1CCN(Cc2ccc(-c3ccc(F)cc3)cc2)CC1 [compound 140],> 7.60

# Other lines, results leading:
row,pIC50,Compound
1,> 7.60,CCNC(=O)c1nc(Cl)c(N2CCN(C3CCN(Cc4ccc(Cl)cc4F)CC3)[C@@H](CC)C2)nc1N [compound 103]
2,> 7.60,CC[C@H]1CN(c2nc(N)c(C(=O)NCCO)nc2Cl)CCN1C1CCN(Cc2ccc(Cl)cc2CO)CC1 [compound 107]
3,> 7.60,CC[C@H]1CN(c2nc(N)c(C(=O)NCCO)nc2Cl)CCN1C1CCN(Cc2ccc(Cl)cc2/C(N)=N\O)CC1 [compound 108]
4,> 7.60,CC[C@H]1CN(c2nc(N)c(C(=O)NCCO)nc2Cl)CCN1C1CCN(Cc2ccc(Cl)cc2)CC1 [compound 110]
5,> 7.60,CC[C@H]1CN(c2nc(N)c(C(=O)NCCO)nc2Cl)CCN1C1CCN(Cc2ccc(Cl)cc2C(=N)N)CC1 [compound 111]
6,> 7.60,CC[C@H]1CN(c2nc(N)c(C(=O)NCCO)nc2Cl)CCN1C1CCN(Cc2ccc(OC(F)(F)F)cc2)CC1 [compound 112]
7,> 7.60,CC[C@H]1CN(c2nc(N)c(C(=O)NCCO)nc2Cl)CCN1C1CCN(Cc2ccc(Cl)cc2F)CC1 [compound 113]
8,> 7.60,CCOC(=O)/N=C(\N)c1cc(Cl)ccc1CN1CCC(N2CCN(c3nc(N)c(C(=O)NCCO)nc3Cl)C[C@@H]2CC)CC1 [compound 114]
9,> 7.60,CC[C@H]1CN(c2nc(N)c(C(=O)NCCO)nc2Cl)CCN1C1CCN(Cc2ccc(Cl)cc2OCCOC)CC1 [compound 115]
10,> 7.60,CC[C@H]1CN(c2nc(N)c(C(=O)NCCO)nc2Cl)CCN1C1CCN(Cc2ccc(C(=O)OC)cc2)CC1 [compound 117]
11,> 7.60,CC[C@H]1CN(c2nc(N)c(C(=O)NCCO)nc2Cl)CCN1C1CCN(Cc2ccc(OC(F)(F)F)cc2OCCOC)CC1 [compound 118]
12,> 7.60,CC[C@H]1CN(c2nc(N)c(C(=O)NCCO)nc2Cl)CCN1C1CCN(Cc2ccc(OC(F)(F)F)cc2OCCCCO)CC1 [compound 119]
13,> 7.60,CC[C@H]1CN(c2nc(N)c(C(=O)NCCO)nc2Cl)CCN1C1CCN(Cc2ccc(Cl)cc2OCCNC(=O)OC(C)(C)C)CC1 [compound 120]
14,> 7.60,CC[C@H]1CN(c2nc(N)c(C(=O)NCCO)nc2Cl)CCN1C1CCN(Cc2ccc(F)c(F)c2)CC1 [compound 123]
15,> 7.60,CC[C@H]1CN(c2nc(N)c(C(=O)NCCO)nc2Cl)CCN1C1CCN(Cc2ccc(Cl)cc2OCCO)CC1 [compound 124]
16,> 7.60,CC[C@H]1CN(c2nc(N)c(C(=O)NCCO)nc2Cl)CCN1C1CCN(Cc2ccc(OC(F)(F)F)cc2OCCCO)CC1 [compound 125]
17,> 7.60,CC[C@H]1CN(c2nc(N)c(C(=O)NCCO)nc2Cl)CCN1C1CCN(Cc2ccc(Cl)cc2C(N)=O)CC1 [compound 127]
18,> 7.60,CC[C@H]1CN(c2nc(N)c(C(=O)NCCO)nc2Cl)CCN1C1CCN(Cc2ccc(Cl)cc2OCCNC(=O)C(C)(C)C)CC1 [compound 129]
19,> 7.60,CC[C@H]1CN(c2nc(N)c(C(=O)NCCO)nc2Cl)CCN1C1CCN(Cc2ccc(Cl)cc2OCCNS(C)(=O)=O)CC1 [compound 130]
20,> 7.60,CC[C@H]1CN(c2nc(N)c(C(=O)NCCO)nc2Cl)CCN1C1CCN(Cc2ccc(Cl)cc2OCCNC(=O)NC2CCCCC2)CC1 [compound 131]
21,> 7.60,CC[C@H]1CN(c2nc(N)c(C(=O)NCCO)nc2Cl)CCN1C1CCN(Cc2ccc(Cl)cc2OCCNS(=O)(=O)C(F)(F)F)CC1 [compound 132]
22,> 7.60,CC[C@H]1CN(c2nc(N)c(C(=O)NCCO)nc2Cl)CCN1C1CCN(Cc2ccc(F)cc2)CC1 [compound 133]
23,> 7.60,CC[C@H]1CN(c2nc(N)c(C(=O)NCCO)nc2Cl)CCN1C1CCN(Cc2ccc(Cl)cc2OCCNS(N)(=O)=O)CC1 [compound 134]
24,> 7.60,CC[C@H]1CN(c2nc(N)c(C(=O)NCCO)nc2Cl)CCN1C1CCN(Cc2ccc(Cl)cc2C#N)CC1 [compound 136]
25,> 7.60,CC[C@H]1CN(c2nc(N)c(C(=O)NCCO)nc2Cl)CCN1C1CCN(Cc2ccc(Cl)cc2OCCNC(=O)NC(C)(C)C)CC1 [compound 137]
26,> 7.60,CC[C@H]1CN(c2nc(N)c(C(=O)NCCO)nc2Cl)CCN1C1CCN(Cc2ccc(Cl)cc2O)CC1 [compound 138]
27,> 7.60,CC[C@H]1CN(c2nc(N)c(C(=O)NCCO)nc2Cl)CCN1C1CCN(Cc2cc(F)c(Cl)cc2OCCCO)CC1 [compound 139]

# Same assay, conditions: read-out: IC50
row,pIC50,Compound
1,9.70,CC[C@H]1CN(c2nc(N)c(C(=O)NCCO)nc2Cl)CCN1C1CCN(Cc2ccc(Cl)cc2CO)CC1 [compound 107]

# — patent US7868005B2, “Pyrazinyl substituted piperazine-piperidines with CXCR3 antagonist activity” (Schering Corporation, priority 2005, dated 2011)
